Laboratory results from patent publication US12552826B2, “PRMT5 inhibitors” (Merck Sharp & Dohme LLC, priority 2018, dated 2026).

Target: T1, PRMT5 (Homo sapiens, UniProt O14744)
T1 construct: endogenous in cells; host or cells: MCF-7
Test: PRMT5 Cell Target Engagement (TE) Assay
Type: cell-based
Settings: MCF-7 cells, 3 days treatment, nuclear SDMA by high content imaging
Description: The PRMT5 TE assay is a biomarker assay for identifying compounds that inhibit symmetric dimethylation of arginine (SDMA) of PRMT5 substrates. The following substrates have been reported for PRMT5: Histone H2A and H4 R3, Histone H3 R2, Histone H3 R8, spliceosome Sm proteins, ribosomal protein RPS10, p53, FEN1, nucleoplasmin, nucleolin, EGFR and EBNA. The assay will focus on detecting symmetrically dimethylated nuclear proteins using high content imaging technology. Detection of the expression of symmetrically dimethylated nuclear proteins is through a mixture of primary rabbit monoclonal antibodies to SDMA (CST 13222), which in turn recognized by an Alexafluor 488 dye-conjugated anti-rabbit IgG secondary antibody. The IN Cell Analyzer 2200 or Opera-Phenix measures nuclear Alexafluor 488 fluorescent dye intensity that is directly related to the level of expression of symmetrically dimethylated nuclear proteins at the single cell level. Nuclear AF488 dye intensities are compared to the mean value for DMSO treated cells (MIN) to report percent of inhibition for each compound-treated well.
In this assay, the cell potency (EC50) of each compound was determined from a ten point (1:3 serial dilution; top compound concentration of 10000 nM) titration curve using the following outlined procedure. Each well of a BD falcon collagen coated black/clear bottom 384-well plate was seeded with 4000 MCF-7 cells in 30 μl media and allowed to attach for 5 hours. Media is ATCC-formulated Eagle's Minimum Essential Medium, Catalog No. 30-2003. The following components were added to the base medium: 0.01 mg/mL human recombinant insulin; fetal bovine serum to a final concentration of 10%. Additional 30 μl of media containing 2× compounds were added to each well. Cells were treated for 3 days in 37° C. CO2 incubator. On day 3, cells were fixed with Cytofix, permeabilized with 0.4% Triton-X-100/Cytofix, and washed with D-PBS without Ca/Mg. Cells were blocked with Licor Odessey blocking reagent for 1 hour at room temperature, followed by incubation with anti-SDMA (1:1000) antibody at 4° C. overnight. 1° antibody was removed, followed by three washings with DPBS without Ca/Mg and 0.05% Tween20. Hoechst (5 μg/mL), Cell Mask deep stain (1:2000) and Alexa488-conjugated goat anti-rabbit IgG (2 μg/mL) was added for 1 hour at room temperature. A final washing step (three washes) was performed before sealing plate for imaging on In Cell Analyzer 2200 or Opera-Phenix. Images from analyzer were uploaded to Columbus for image analysis. IC50 values were determined by 4 parameters robust fit of percent fluorescence units vs. (Log10) compound concentrations.

T1 sequence (O14744 whole entry): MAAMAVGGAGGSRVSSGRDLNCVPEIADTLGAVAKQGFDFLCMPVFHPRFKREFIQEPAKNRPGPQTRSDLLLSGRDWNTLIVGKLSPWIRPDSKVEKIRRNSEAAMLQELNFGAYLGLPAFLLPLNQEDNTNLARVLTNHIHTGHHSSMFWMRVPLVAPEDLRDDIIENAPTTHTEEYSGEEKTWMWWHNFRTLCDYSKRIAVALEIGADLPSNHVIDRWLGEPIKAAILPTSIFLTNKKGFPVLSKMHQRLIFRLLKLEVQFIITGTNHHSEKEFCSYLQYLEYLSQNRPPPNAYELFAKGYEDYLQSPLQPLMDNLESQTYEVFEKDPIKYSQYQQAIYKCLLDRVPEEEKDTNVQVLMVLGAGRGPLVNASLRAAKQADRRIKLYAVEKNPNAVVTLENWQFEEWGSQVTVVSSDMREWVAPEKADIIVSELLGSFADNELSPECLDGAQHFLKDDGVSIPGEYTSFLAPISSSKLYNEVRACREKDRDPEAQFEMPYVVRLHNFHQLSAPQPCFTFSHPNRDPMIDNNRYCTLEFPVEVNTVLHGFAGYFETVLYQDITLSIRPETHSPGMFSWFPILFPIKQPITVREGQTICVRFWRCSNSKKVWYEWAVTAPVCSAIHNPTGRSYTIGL
T1 sequence (Q9BQA1 whole entry partner): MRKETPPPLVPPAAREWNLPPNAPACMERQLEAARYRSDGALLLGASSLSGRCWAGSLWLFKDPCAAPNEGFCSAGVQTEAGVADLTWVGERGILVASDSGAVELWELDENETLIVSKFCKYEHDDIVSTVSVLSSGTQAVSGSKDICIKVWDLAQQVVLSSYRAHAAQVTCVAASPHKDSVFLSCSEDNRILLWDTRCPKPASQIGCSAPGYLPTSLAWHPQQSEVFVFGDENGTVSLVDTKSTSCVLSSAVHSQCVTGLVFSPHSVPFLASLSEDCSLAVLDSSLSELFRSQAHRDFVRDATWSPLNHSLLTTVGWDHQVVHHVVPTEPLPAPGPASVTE

Structure (SMILES)	EC50 [nM]
C[C@]1(O)[C@@H](O)[C@H](n2ccc3c(N)ncnc32)O[C@@H]1[C@](C)(O)c1cccc2c1CNCC2 [Example 63, 7-[6-deoxy-3-C-methyl-5-C-(1,2,3,4-tetrahydroisoquinolin-8-yl)-beta-D-ribo-hexofuranosyl]-7H-pyrrolo[2,3-d]pyrimidin-4-amine]	182
C[C@@]1(O)[C@@H]([C@@H](O)c2cc(C(F)F)c(F)c3c2CNCC3)O[C@@H](n2ccc3c(N)ncnc32)[C@@H]1O [Example 9, (2R,3S,4R,5R)-5-(4-amino-7H-pyrrolo[2,3-d]pyrimidin-7-yl)-2-((S)-(6-(difluoromethyl)-5-fluoro-1,2,3,4-tetrahydroisoquinolin-8-yl)(hydroxy)methyl)-3-methyltetrahydrofuran-3,4-diol]	157
Cc1ccccc1[C@@H](O)[C@H]1O[C@@H](n2ccc3c(N)ncnc32)[C@H](O)[C@]1(C)O [Example 40, 7-[(5R)-3-C-methyl-5-C-(2-methylphenyl)-beta-D-ribofuranosyl]-7H-pyrrolo[2,3-d]pyrimidin-4-amine]	2270
C[C@]1(O)[C@@H](O)[C@H](n2ccc3c(N)ncnc32)O[C@@H]1[C@](C)(O)c1cc(C(F)F)ccn1 [Example 76, 7-{6-deoxy-5-C-[4-(difluoromethyl)pyridin-2-yl]-3-C-methyl-alpha-L-talofuranosyl}-7H-pyrrolo[2,3-d]pyrimidin-4-amine]	1200
C[C@]1(O)[C@@H](O)[C@H](n2ccc3c(N)ncnc32)O[C@@H]1[C@](C)(O)c1cccc(C(F)F)c1 [Example 62, 7-{6-deoxy-5-C-[3-(difluoromethyl)phenyl]-3-C-methyl-alpha-L-talofuranosyl}-7H-pyrrolo[2,3-d]pyrimidin-4-amine]	9.4
C[C@@]1(O)[C@@H]([C@H](O)c2ccc(F)c(C(F)F)c2F)O[C@@H](n2ccc3c(N)ncnc32)[C@@H]1O [Example 67, 7-{(5R)-5-C-[3-(difluoromethyl)-2,4-difluorophenyl]-3-C-methyl-beta-D-ribofuranosyl}-7H-pyrrolo[2,3-d]pyrimidin-4-amine]	435
Cc1ncnc2c1ccn2[C@@H]1O[C@H]([C@H](C)c2cc(C(F)F)c(F)c3c2CNCC3)[C@@](C)(O)[C@H]1O (single isomer, unassigned) [Example 92]	278
Cc1ncnc2c1ccn2[C@@H]1O[C@H]([C@@H](C)c2cc(C(F)F)c(F)c3c2CNCC3)[C@@](C)(O)[C@H]1O (single isomer, unassigned) [Example 93]	1.4
COc1cccc([C@@H](O)[C@H]2O[C@@H](n3ccc4c(N)ncnc43)[C@H](O)[C@]2(C)O)c1 [Example 36, 7-[(5R)-5-C-(3-methoxyphenyl)-3-C-methyl-beta-D-ribofuranosyl]-7H-pyrrolo[2,3-d]pyrimidin-4-amine]	997
C[C@@]1(O)[C@@H]([C@@H](O)c2cc(F)c(F)c(F)c2)O[C@@H](n2ccc3c(N)ncnc32)[C@@H]1O [Example 35, 7-[(5S)-3-C-methyl-5-C-(3,4,5-trifluorophenyl)-beta-D-ribofuranosyl]-7H-pyrrolo[2,3-d]pyrimidin-4-amine]	> 10000
C[C@@]1(O)[C@@H]([C@@H](O)c2cc(F)cc(F)c2F)O[C@@H](n2ccc3c(N)ncnc32)[C@@H]1O [Example 53, 7-[(5S)-3-C-methyl-5-C-(2,3,5-trifluorophenyl)-beta-D-ribofuranosyl]-7H-pyrrolo[2,3-d]pyrimidin-4-amine]	8960
C[C@@]1(O)[C@@H]([C@H](O)c2cc(F)c(F)c(F)c2)O[C@@H](n2ccc3c(N)ncnc32)[C@@H]1O [Example 34, 7-[(5R)-3-C-methyl-5-C-(3,4,5-trifluorophenyl)-beta-D-ribofuranosyl]-7H-pyrrolo[2,3-d]pyrimidin-4-amine]	227
C[C@@]1(O)[C@@H]([C@H](O)c2cc(F)cc(Cl)c2)O[C@@H](n2ccc3c(N)ncnc32)[C@@H]1O [Example 26, 7-[(5R)-5-C-(3-chloro-5-fluorophenyl)-3-C-methyl-beta-D-ribofuranosyl]-7H-pyrrolo[2,3-d]pyrimidin-4-amine]	34
C[C@@]1(O)[C@@H]([C@H](O)c2cc(F)c(F)c(C(F)F)c2)O[C@@H](n2ccc3c(N)ncnc32)[C@@H]1O [Example 64, 7-{(5R)-5-C-[3-(difluoromethyl)-4,5-difluorophenyl]-3-C-methyl-beta-D-ribofuranosyl}-7H-pyrrolo[2,3-d]pyrimidin-4-amine]	219
C[C@@]1(O)[C@@H]([C@@H](O)c2cccc(F)c2F)O[C@@H](n2ccc3c(N)ncnc32)[C@@H]1O [Example 45, 7-[(5S)-5-C-(2,3-difluorophenyl)-3-C-methyl-beta-D-ribofuranosyl]-7H-pyrrolo[2,3-d]pyrimidin-4-amine]	> 10000
C[C@@]1(O)[C@@H]([C@H](O)c2cc(F)cc(F)c2F)O[C@@H](n2ccc3c(N)ncnc32)[C@@H]1O [Example 52, 7-[(5R)-3-C-methyl-5-C-(2,3,5-trifluorophenyl)-beta-D-ribofuranosyl]-7H-pyrrolo[2,3-d]pyrimidin-4-amine]	141
C[C@@]1(O)[C@@H]([C@@H](O)c2cccc(C(F)F)c2)O[C@@H](n2ccc3c(N)ncnc32)[C@@H]1O [Example 57, 7-{(5S)-5-C-[3-(difluoromethyl)phenyl]-3-C-methyl-beta-D-ribofuranosyl}-7H-pyrrolo[2,3-d]pyrimidin-4-amine]	> 10000
C[C@@]1(O)[C@@H]([C@H](O)c2cc(C(F)F)c(F)c3c2CNCC3)O[C@@H](n2ccc3c(N)ncnc32)[C@@H]1O [Example 8, (2R,3S,4R,5R)-5-(4-amino-7H-pyrrolo[2,3-d]pyrimidin-7-yl)-2-((R)-(6-(difluoromethyl)-5-fluoro-1,2,3,4-tetrahydroisoquinolin-8-yl)(hydroxy)methyl)-3-methyltetrahydrofuran-3,4-diol]	65
Cc1ncnc2c1ccn2[C@@H]1O[C@H]([C@](C)(O)c2cccc3c2CNCC3)[C@@](C)(O)[C@H]1O [Example 88, (2R,3S,4R,5R)-2-((R)-1-hydroxy-1-(1,2,3,4-tetrahydroisoquinolin-8-yl)ethyl)-3-methyl-5-(4-methyl-7H-pyrrolo[2,3-d]pyrimidin-7-yl)tetrahydrofuran-3,4-diol]	47
C[C@@]1(O)[C@@H]([C@H](O)c2cc(F)cc(C(F)(F)F)c2)O[C@@H](n2ccc3c(N)ncnc32)[C@@H]1O [Example 58, 7-{(5R)-5-C-[3-fluoro-5-(trifluoromethyl)phenyl]-3-C-methyl-beta-D-ribofuranosyl}-7H-pyrrolo[2,3-d]pyrimidin-4-amine]	301
C[C@@]1(O)[C@@H]([C@H](O)c2cncc(C(F)F)c2)O[C@@H](n2ccc3c(N)ncnc32)[C@@H]1O [Example 74, 7-{(5R)-5-C-[5-(difluoromethyl)pyridin-3-yl]-3-C-methyl-beta-D-ribofuranosyl}-7H-pyrrolo[2,3-d]pyrimidin-4-amine]	2710
C[C@]1(O)[C@@H](O)[C@H](n2ccc3c(N)ncnc32)O[C@@H]1[C@](C)(O)c1ccc(F)c(F)c1 [Example 3, (2R,3S,4R,5R)-5-(4-amino-7H-pyrrolo[2,3-d]pyrimidin-7-yl)-2-((R)-1-(3,4-difluorophenyl)-1-hydroxyethyl)-3-methyltetrahydrofuran-3,4-diol]	145
